Source: US8663646B2, “P53 peptide vaccine” (priority 2007, dated 2014)
pIC50: −log10 of the molar value. Where no end group is shown, it is not given here.

What was measured:
[1] = target: T1, 20S household proteasomes from human tumor cell line (HeLa) (Homo sapiens, UniProt P28072+P28074+Q99436); experiment: In vitro proteasome mediated digestion of 30-mers, mass spectrometry, household proteasome HeLa; type: biochemical; conditions: 30 residue long precursor peptides
T1 construct: 20S household proteasomes were purified from human tumor cell line (HeLa); endogenous in cells; host or cells: HeLa cells; 20S proteasome purified from them
Method: (§1) In the context of the invention, “being inefficiently processed by a proteasome” preferably means that within the first hour of digestion by a proteasome less than 1% of total digested peptide is found. The processing by a proteasome is preferably assessed by incubating a purified proteasome, more preferably a human proteasome with a peptide comprising the potential CTL epitope (30 amino acid length approximately) in a proteasome digestion buffer during at least one hour at 37° C. The reaction is subsequently stopped by adding trifluoroacetic acid. Analysis of the digested peptides is performed with electrospray ionization mass spectrometry (see example 1). Even more preferably, the human proteasome is an immunoproteasome from B-LCL JY cells (Kessler J H et al. 2001).
(§2) 20S immuno-proteasomes were purified from a mouse B-cell line (RMA) and a human B-LCL cell line (JY) and 20S household proteasomes were purified from human tumor cell line (HeLa) as described (Kessler J H et al 2001). To assess kinetics, digestions were performed with different incubation periods as indicated. Briefly, peptides containing the (potential) CTL epitopes (30 mers, 20 μg) were incubated with 1 μg of purified proteasome at 37° C. for 1 h, 4 h and 24 h in 300 μl proteasome digestion buffer, trifluoroacetic acid (30 μl) was added to stop the digestion and samples were stored at −20° C. before mass spectrometric analysis. Electrospray ionization mass spectrometry was performed on a hybrid quadrupole time-of-flight mass spectromter, a Q-TOF (Micromass), equipped with an on-line nanoelectrospray interface with an approximate flow rate of […] as described (Kessler J H et al 2001). The peaks in the mass spectrum were searched in the digested precursor peptide using the Biolynx/proteins software (Micromass) supplied with the mass spectrometer. The intensity of the peaks in the mass spectra was used to establish the relative amounts of peptides generated after proteasome digestion. The relative amounts of the peptides are given as a percentage of the total amount of peptide digested by the proteasome at the indicated incubation time. Major cleavage sites are defined as more than >1% of total digested peptide within the first hour.

[2] = target: T2, 20S immuno-proteasomes from mouse B-cell line (RMA) (Mus musculus, UniProt O35955+P28063+P28076); experiment: In vitro proteasome mediated digestion of 30-mers, mass spectrometry, immunoproteasome RMA; type: biochemical; conditions: 30 residue long precursor peptides
T2 construct: 20S immuno-proteasomes were purified from a mouse B-cell line (RMA); endogenous in cells; host or cells: RMA cells; 20S proteasome purified from them
Method: as §1, §2

[3] = target: T3, 20S immuno-proteasomes from human B-LCL cell line (JY) (Homo sapiens, UniProt P28062+P28065+P40306); experiment: In vitro proteasome mediated digestion of 30-mers, mass spectrometry, immunoproteasome JY; type: biochemical; conditions: 30 residue long precursor peptides
T3 construct: purified from a mouse B-cell line (RMA) and a human B-LCL cell line (JY); endogenous in cells; host or cells: B-LCL JY cells; 20S proteasome purified from them
Method: as §1, §2

HLA-A*0301 [4] = target: T4, HLA-A*0301 (Homo sapiens, UniProt P04439); experiment: Stability of peptide-HLA complex, binding at 4° C. and 20° C., HLA-A*0301; conditions: for Peptide Binding Stability: HLA-A*0301, IC50 at 20° C. vs 4° C.; for HLA binding Stability (Table 5): HLA type A3
T4 construct: B-cell lines used are: CAA (A*0101), EKR (A*0301), BVR (A*1101), VIJF (A*2401); endogenous in cells; host or cells: B-cell line EKR
Method: (§3) Stability of other peptide-HLA complexes was preferably determined as follows. […] Peptides of >50% of the initial complexes was lost within 2 hours were considered unstable. […] The rest was designated as unstable peptide binding.
(§4) Peptides 8-11 residues in length were selected based on typical anchor residues for HLA-A*0101, A*0301, A*1101 and HLA-A*2401 (Rammensee H G et al). The capacity of peptides to bind was tested in a competition based cellular binding assay as previously described (van der Burg S H et al 1995). FL-labeled reference peptides were synthesized as Cys-derivative (van der Burg S H et al 1995). Fluorescence labeled reference peptides used were: YLEPAC(FL)AK (SEQ ID NO: 87) (HLA-A*0101) and KVFPC(FL)ALINK (SEQ ID NO: 88) (HLA-A*1101) (Sette A et al), KVFPC(FL)ALINK (SEQ ID NO: 89) (HLAA*0301) (van der Burg S H et al 1995) and RYLKC(FL)QQLL (SEQ ID NO: 90) (A*2401) (Dai L C et al). B-cell lines used are: CAA (A*0101), EKR (A*0301), BVR (A*1101), VIJF (A*2401). The relative binding capacity of the peptides is expressed as the peptide concentration to inhibit 50% (1050) of the binding of the reference peptide. […] Peptide stabilization for HLA-A*0201 was performed as previously described (van der Burg S H et al, 1996). Peptides of >50% of the initial complexes was lost within 2 hours were considered unstable. Stability of other peptide-HLA complexes was determined as follows. Peptide binding was performed at 4° C. and 20° C. and 1050 were determined. […] The rest was designated as unstable peptide binding.

HLA-A*0301 [5] = target: T4, HLA-A*0301; experiment: Competition based cellular binding assay, HLA-A*0301 (B-cell line EKR); conditions: for HLA binding Affinity (Table 5): HLA type A3
HLA-A*1101 [6] = target: T5, HLA-A*1101 (Homo sapiens, UniProt P04439, A114D/D185E/E176A/F33Y/L180Q/S129P/T187R); experiment: Competition based cellular binding assay, HLA-A*1101 (B-cell line BVR); conditions: HLA-A*1101; IC50 category
T5 construct: B-cell lines used are: CAA (A*0101), EKR (A*0301), BVR (A*1101), VIJF (A*2401); endogenous in cells; host or cells: B-cell line BVR

HLA-A*1101 [7] = target: T5, HLA-A*1101; experiment: Stability of peptide-HLA complex, binding at 4° C. and 20° C., HLA-A*1101; conditions: HLA-A*1101; IC50 at 20° C. vs 4° C.
Method: as §3, §4

HLA-A*2401 [8] = experiment: Stability of peptide-HLA complex, binding at 4° C. and 20° C., HLA-A*2401; design: species or system human; conditions: for HLA binding Stability (Table 5): HLA type A24; for Peptide Binding Stability: HLA-A*2401, IC50 at 20° C. vs 4° C.
Method: as §3, §4

HLA-A*2401 [9] = experiment: Competition based cellular binding assay, HLA-A*2401 (B-cell line VIJF); design: species or system human; conditions: for HLA binding Affinity (Table 5): HLA type A24; for Peptide Binding Affinity: HLA-A*2401, IC50 category

Molecule	Peptide Binding Affinity (HLA-A*0301 [5]; HLA-A*0301, IC50 category)	Peptide Binding Affinity (HLA-A*1101 [6])	HLA binding Affinity (Table 5) (HLA-A*0301 [5])	pIC50 (HLA-A*0301 [5]; HLA-A*0301, IC50 category, read-out: Peptide Binding Affinity)	Proteasomal Cleavage of C-terminus, HH (HeLa) [1]	Proteasomal Cleavage of C-terminus, IP (RMA) [2]	Proteasomal Cleavage of C-terminus, IP (JY) [3]	Peptide Binding Stability (HLA-A*0301 [4])	Peptide Binding Stability (HLA-A*1101 [7])	HLA binding Stability (Table 5) (HLA-A*2401 [8])	Peptide Binding Stability (HLA-A*2401 [8])	HLA binding Affinity (Table 5) (HLA-A*2401 [9])	Peptide Binding Affinity (HLA-A*2401 [9])	HLA binding Stability (Table 5) (HLA-A*0301 [4])
CC(C)C[C@H](NC(=O)[C@@H](NC(=O)[C@H](CC(N)=O)NC(=O)[C@H](CC(N)=O)NC(=O)[C@H](CCC(=O)O)NC(=O)[C@@H]1CCCN1C(=O)[C@H](CC(C)C)NC(=O)[C@H](CC(C)C)NC(=O)[C@@H](N)CCCCN)C(C)C)C(=O)O [p53 24-32]					+ (Major cleavage sites are defined as more than >1% of total digested peptide within the first hour)	+ (Major cleavage sites are defined as more than >1% of total digested peptide within the first hour)	+ (Major cleavage sites are defined as more than >1% of total digested peptide within the first hour)							
CC(C)C[C@H](NC(=O)[C@H](Cc1ccc(O)cc1)NC(=O)[C@@H](N)CCC(=O)O)C(=O)N[C@@H](CC(=O)O)C(=O)N[C@@H](CC(=O)O)C(=O)N[C@@H](CCCNC(=N)N)C(=O)N[C@@H](CC(N)=O)C(=O)N[C@H](C(=O)N[C@@H](Cc1ccccc1)C(=O)O)[C@@H](C)O [p53 204-212]										+ (Stable peptides displayed IC50 at 20 °C that deviated <2 times of the IC50 at 4° C.)	+ (Stable peptides displayed IC50 at 20 °C that deviated <2 times of the IC50 at 4° C.)	high	high	
CC[C@H](C)[C@H](NC(=O)[C@@H](NC(=O)[C@@H](NC(=O)[C@H](CS)NC(=O)[C@H](CC(=O)O)NC(=O)[C@H](CO)NC(=O)CN)[C@@H](C)O)[C@@H](C)O)C(=O)N[C@@H](Cc1c[nH]cn1)C(=O)N[C@@H](Cc1ccc(O)cc1)C(=O)O [p53 226-234]					+ (Major cleavage sites are defined as more than >1% of total digested peptide within the first hour)	+ (Major cleavage sites are defined as more than >1% of total digested peptide within the first hour)								
CSCC[C@H](N)C(=O)N[C@@H](Cc1ccccc1)C(=O)N[C@@H](CCCNC(=N)N)C(=O)N[C@@H](CCC(=O)O)C(=O)N[C@@H](CC(C)C)C(=O)N[C@@H](CC(N)=O)C(=O)N[C@@H](CCC(=O)O)C(=O)N[C@@H](C)C(=O)N[C@@H](CC(C)C)C(=O)O [p53 340-348, MFRELNEAL]										+/− (Peptides that displayed IC50 at 20 °C of more than twice the IC50 at 4 °C but IC50 < 15 μM were considered to bind with intermediate stability.)	+/− (Peptides that displayed IC50 at 20 °C of more than twice the IC50 at 4 °C but IC50 < 15 μM were considered to bind with intermediate stability.)	high	high	
LGFLHSGTAK [p53 111-120]	high	high	high			+ (Major cleavage sites are defined as more than >1% of total digested peptide within the first hour)	+ (Major cleavage sites are defined as more than >1% of total digested peptide within the first hour)	+/− (Peptides that displayed IC50 at 20 °C of more than twice the IC50 at 4 °C but IC50 < 15 μM were considered to bind with intermediate stability.)	+ (Stable peptides displayed IC50 at 20 °C that deviated <2 times of the IC50 at 4° C.)					+/− (Peptides that displayed IC50 at 20 °C of more than twice the IC50 at 4 °C but IC50 < 15 μM were considered to bind with intermediate stability.)

More lines, main results first:

Peptide Binding Affinity (HLA-A*0301 [5]; HLA-A*0301, IC50 category)	Peptide Binding Affinity (HLA-A*1101 [6])	HLA binding Affinity (Table 5) (HLA-A*0301 [5])	pIC50 (HLA-A*0301 [5]; HLA-A*0301, IC50 category, read-out: Peptide Binding Affinity)	Molecule	Proteasomal Cleavage of C-terminus, HH (HeLa) [1]	Proteasomal Cleavage of C-terminus, IP (RMA) [2]	Proteasomal Cleavage of C-terminus, IP (JY) [3]	Peptide Binding Stability (HLA-A*0301 [4])	Peptide Binding Stability (HLA-A*1101 [7])	HLA binding Stability (Table 5) (HLA-A*2401 [8])	Peptide Binding Stability (HLA-A*2401 [8])	HLA binding Affinity (Table 5) (HLA-A*2401 [9])	Peptide Binding Affinity (HLA-A*2401 [9])	HLA binding Stability (Table 5) (HLA-A*0301 [4])
high				CSCC[C@H](NC(=O)[C@H](CCCCN)NC(=O)[C@H](CC(N)=O)NC(=O)[C@H](CC(C)C)NC(=O)[C@H](C)N)C(=O)N[C@@H](Cc1ccccc1)C(=O)N[C@@H](CS)C(=O)N[C@@H](CCC(N)=O)C(=O)N[C@@H](CC(C)C)C(=O)N[C@@H](C)C(=O)N[C@@H](CCCCN)C(=O)O [p53 129-139]	+ (Major cleavage sites are defined as more than >1% of total digested peptide within the first hour)	+ (Major cleavage sites are defined as more than >1% of total digested peptide within the first hour)	+ (Major cleavage sites are defined as more than >1% of total digested peptide within the first hour)	+ (Stable peptides displayed IC50 at 20 °C that deviated <2 times of the IC50 at 4° C.)						
high	high			CSCC[C@H](NC(=O)[C@@H](N)CCCCN)C(=O)N[C@@H](Cc1ccccc1)C(=O)N[C@@H](CS)C(=O)N[C@@H](CCC(N)=O)C(=O)N[C@@H](CC(C)C)C(=O)N[C@@H](C)C(=O)N[C@@H](CCCCN)C(=O)O [p53 132-139]	+ (Major cleavage sites are defined as more than >1% of total digested peptide within the first hour)	+ (Major cleavage sites are defined as more than >1% of total digested peptide within the first hour)	+ (Major cleavage sites are defined as more than >1% of total digested peptide within the first hour)	+ (Stable peptides displayed IC50 at 20 °C that deviated <2 times of the IC50 at 4° C.)	+ (Stable peptides displayed IC50 at 20 °C that deviated <2 times of the IC50 at 4° C.)					
		int	4.82 to 5.30	KGQSTSRHK [p53 373-381]	+ (Major cleavage sites are defined as more than >1% of total digested peptide within the first hour)	+ (Major cleavage sites are defined as more than >1% of total digested peptide within the first hour)	+ (Major cleavage sites are defined as more than >1% of total digested peptide within the first hour)	+/− (Peptides that displayed IC50 at 20 °C of more than twice the IC50 at 4 °C but IC50 < 15 μM were considered to bind with intermediate stability.)						− (The rest was designated as unstable peptide binding.)
